From patent US12226507B2, “Use of dianhydrohexitol in oral and dental care to reduce the development of bacterial strains” (ROQUETTE FRERES, priority 2017, dated 2025)

What was measured:
Format in all cases: cell-based
Actinomyces oris = test: Bacterial growth of Actinomyces oris in the presence of polyols; settings: aerobic conditions, FIG. 6
Protocol: (§1) The growth of these strains was then measured in the presence of isosorbide, maltitol, xylitol, allulose, sorbitol powder and dextrose monohydrate in an unrefreshed culture medium, incubated at 37° C. for 48 hours or 72 hours under aerobic or anaerobic conditions. The growths were measured by bacterial counting on solid medium. The results are expressed in Log 10 (CFU/ml). The culture media used are the Bacto Brain Heart Infusion (ref. 237500-BD (BHI)) and Difco™ Brain Heart Infusion Agar (ref. 241830-BD (BHIa)) culture media.

oral bacterial strains = test: Growth of the oral bacterial strains overall (summary of all strains tested)
Protocol: as §1

Streptococcus mutans [1] = test: Bacterial growth of Streptococcus mutans strain from a healthy tooth, in the presence of polyols, counting on solid medium; settings: aerobic conditions, FIG. 1
Protocol: as §1

Streptococcus mutans [2] = test: Bacterial growth and biofilm of Streptococcus mutans strain from a decayed tooth, in the presence of polyols; settings: FIG. 2
Protocol: as §1, with “incubated at 37° C. for 48 hours or 72 hours under aerobic or anaerobic” left out

Lactobacillus gasseri = test: Bacterial growth of Lactobacillus gasseri in the presence of polyols; settings: anaerobic conditions, FIG. 3
Protocol: as §1

Actinomyces naeslundii = test: Bacterial growth of Actinomyces naeslundii in the presence of polyols; settings: for bacterial population: FIG. 4 as printed
Protocol: as §1

Row | SMILES | bacterial growth (Actinomyces oris) | growth of the bacterial strains, all cases (oral bacterial strains; all strains and conditions tested) | level of performance relative to xylitol or sorbitol (oral bacterial strains; comparison with polyols of commercial toothpastes) | bacterial population after 24 hours (Streptococcus mutans [1]) | kind of effect on the bacterial population (Streptococcus mutans [1]) | bacterial growth (Streptococcus mutans [1]; T=24 hours) | bacterial growth (Streptococcus mutans [2]; anaerobic conditions) | biofilm formed (Streptococcus mutans [2]; anaerobic conditions, after 96 hours of incubation) | bacterial growth (Streptococcus mutans [2]; strain from a decayed tooth) | bacterial growth (Lactobacillus gasseri; T=24 hours) | kind of effect, populations beyond 24 hours (Lactobacillus gasseri; beyond 24 hours) | bacterial growth (Actinomyces naeslundii; aerobic conditions, FIG. 5) | bacterial population from T=40 hours (Actinomyces naeslundii; aerobic conditions, from T=40 hours, FIG. 5) | kind of effect on the bacterial population (Actinomyces naeslundii; anaerobic conditions) | bacterial population (Actinomyces naeslundii; anaerobic conditions)
1 | O=C(CO)C(O)C(O)C(O)CO (stereo not shown) [allulose] | slowed relative to the other polyols tested | – | – | – | – | – | – | – | – | – | – | – | – | – | –
2 | O[C@@H]1CO[C@H]2[C@@H]1OC[C@@H]2O [isosorbide, 1,4:3,6-dianhydrosorbitol] | decreases greatly over time in the presence of isosorbide, then stabilizes after 24 hours | very significant decrease | even higher than that observed with xylitol or sorbitol | declines slightly | bacteriostatic effect | remain absent | varies little | biofilm formed in the absence of isosorbide is much more pronounced than in the presence of isosorbide | Very slowed growth | remains absent | inhibitory effect | remains low relative to the other polyols | substantial decrease | bactericidal effect | falls constantly until it disappears completely
3 | OC[C@@H](O)[C@H](O)[C@@H](O)CO [xylitol, reference compound] | slowed relative to the other polyols tested | – | – | – | – | – | – | – | – | – | – | appears to further curb the bacterial growth than the other polyols tested | – | – | remains stable
